# In patent publication US11401260B2, “Biochemical binding of RET9 and VEGFR2 inhibitors” (Kala Pharmaceuticals, Inc., priority 2017, dated 2022):
# Experiments:
# [1] = target: vascular endothelial growth receptor 2 (VEGFR2) (Homo sapiens (Human), UniProt P35968); assay: VEGFR2 competition binding assay (DISCOVERX KINOMESCAN); settings: 11-point dose response, 3-fold serial dilution starting at 1 μM
# Method: A competition binding assay ([…]) was used to measure the ability of a compound to compete for binding of an immobilized adenosine triphosphate (ATP) site directed ligand using a DNA-tagged vascular endothelial growth receptor 2 (VEGFR2) as the target. The ability of the test compound to compete with the immobilized ligand was measured using quantitative polymerase chain reaction (qPCR) of the DNA tag (Fabian, M. A. et al., 23 Nature Biotechnology 329-336 (2005); Karaman, M. W. et al., 26 Nature Biotechnology 127-132 (2008)). A VEGFR2 tagged T7 phage strain was prepared in an Escherichia coli (E. coli) derived from the BL21 strain. The E. coli were grown to log-phase, infected with VEGFR2 tagged T7 phage and then incubated with shaking at 32° C. until lysis. The lysate containing the kinase was then centrifuged and filtered to remove cell debris. Affinity resin for the VEGFR2 assay was prepared by treating Streptavidin-coated magnetic beads with a biotinylated small molecule ligand for 30 minutes at room temperature. […] The VEGFR2 concentration in the eluate was measured using qPCR. […] Binding constants were calculated with standard dose-response curve using the Hill equation with Hill slope set to -1. […]
# RET9 = RET9 (Homo sapiens (Human), UniProt P07949); assay: RET9 competition binding assay (DISCOVERX KINOMESCAN)
# RET9, sequence (P07949 other isoform, or with tags, fused parts or gaps): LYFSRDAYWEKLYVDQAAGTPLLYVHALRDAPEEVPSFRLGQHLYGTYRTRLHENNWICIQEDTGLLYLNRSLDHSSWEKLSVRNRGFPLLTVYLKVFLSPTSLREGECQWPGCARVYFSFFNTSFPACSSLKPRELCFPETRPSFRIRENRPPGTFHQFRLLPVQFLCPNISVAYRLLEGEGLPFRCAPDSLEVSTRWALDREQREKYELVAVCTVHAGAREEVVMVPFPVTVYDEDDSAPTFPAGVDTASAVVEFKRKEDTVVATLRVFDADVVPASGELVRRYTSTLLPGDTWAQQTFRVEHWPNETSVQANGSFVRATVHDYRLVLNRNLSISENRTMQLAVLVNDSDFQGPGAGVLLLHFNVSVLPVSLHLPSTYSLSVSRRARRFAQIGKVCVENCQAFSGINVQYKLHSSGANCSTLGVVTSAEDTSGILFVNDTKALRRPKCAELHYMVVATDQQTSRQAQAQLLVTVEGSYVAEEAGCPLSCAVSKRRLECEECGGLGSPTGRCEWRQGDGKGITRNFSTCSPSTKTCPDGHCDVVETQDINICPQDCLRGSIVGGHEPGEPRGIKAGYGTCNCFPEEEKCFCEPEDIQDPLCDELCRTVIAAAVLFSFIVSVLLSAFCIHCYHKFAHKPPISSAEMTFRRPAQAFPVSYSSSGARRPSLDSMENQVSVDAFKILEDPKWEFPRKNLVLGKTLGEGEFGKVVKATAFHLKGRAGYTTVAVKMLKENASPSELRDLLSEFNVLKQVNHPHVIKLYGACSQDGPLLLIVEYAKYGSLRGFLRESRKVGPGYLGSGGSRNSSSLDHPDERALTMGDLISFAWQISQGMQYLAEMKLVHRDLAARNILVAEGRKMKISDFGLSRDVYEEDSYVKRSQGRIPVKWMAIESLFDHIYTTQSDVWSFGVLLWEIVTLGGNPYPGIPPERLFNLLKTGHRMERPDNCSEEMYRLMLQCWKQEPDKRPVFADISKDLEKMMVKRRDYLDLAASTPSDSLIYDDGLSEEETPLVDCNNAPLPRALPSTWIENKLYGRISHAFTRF
# Method: A competition binding assay ([…]) was used to measure the ability of a compound to compete for binding of an immobilized adenosine triphosphate (ATP) site directed ligand using a DNA-tagged vascular endothelial growth receptor 2 (VEGFR2) as the target. The ability of the test compound to compete with the immobilized ligand was measured using quantitative polymerase chain reaction (qPCR) of the DNA tag (Fabian, M. A. et al., 23 Nature Biotechnology 329-336 (2005); Karaman, M. W. et al., 26 Nature Biotechnology 127-132 (2008)). Similarly, a competition binding assay ([…]) was used to determine the dissociation constant (Kd) of Compound 1 to RET9.
# vascular endothelial growth receptor 2 (VEGFR2), sequence (P35968 20-1356): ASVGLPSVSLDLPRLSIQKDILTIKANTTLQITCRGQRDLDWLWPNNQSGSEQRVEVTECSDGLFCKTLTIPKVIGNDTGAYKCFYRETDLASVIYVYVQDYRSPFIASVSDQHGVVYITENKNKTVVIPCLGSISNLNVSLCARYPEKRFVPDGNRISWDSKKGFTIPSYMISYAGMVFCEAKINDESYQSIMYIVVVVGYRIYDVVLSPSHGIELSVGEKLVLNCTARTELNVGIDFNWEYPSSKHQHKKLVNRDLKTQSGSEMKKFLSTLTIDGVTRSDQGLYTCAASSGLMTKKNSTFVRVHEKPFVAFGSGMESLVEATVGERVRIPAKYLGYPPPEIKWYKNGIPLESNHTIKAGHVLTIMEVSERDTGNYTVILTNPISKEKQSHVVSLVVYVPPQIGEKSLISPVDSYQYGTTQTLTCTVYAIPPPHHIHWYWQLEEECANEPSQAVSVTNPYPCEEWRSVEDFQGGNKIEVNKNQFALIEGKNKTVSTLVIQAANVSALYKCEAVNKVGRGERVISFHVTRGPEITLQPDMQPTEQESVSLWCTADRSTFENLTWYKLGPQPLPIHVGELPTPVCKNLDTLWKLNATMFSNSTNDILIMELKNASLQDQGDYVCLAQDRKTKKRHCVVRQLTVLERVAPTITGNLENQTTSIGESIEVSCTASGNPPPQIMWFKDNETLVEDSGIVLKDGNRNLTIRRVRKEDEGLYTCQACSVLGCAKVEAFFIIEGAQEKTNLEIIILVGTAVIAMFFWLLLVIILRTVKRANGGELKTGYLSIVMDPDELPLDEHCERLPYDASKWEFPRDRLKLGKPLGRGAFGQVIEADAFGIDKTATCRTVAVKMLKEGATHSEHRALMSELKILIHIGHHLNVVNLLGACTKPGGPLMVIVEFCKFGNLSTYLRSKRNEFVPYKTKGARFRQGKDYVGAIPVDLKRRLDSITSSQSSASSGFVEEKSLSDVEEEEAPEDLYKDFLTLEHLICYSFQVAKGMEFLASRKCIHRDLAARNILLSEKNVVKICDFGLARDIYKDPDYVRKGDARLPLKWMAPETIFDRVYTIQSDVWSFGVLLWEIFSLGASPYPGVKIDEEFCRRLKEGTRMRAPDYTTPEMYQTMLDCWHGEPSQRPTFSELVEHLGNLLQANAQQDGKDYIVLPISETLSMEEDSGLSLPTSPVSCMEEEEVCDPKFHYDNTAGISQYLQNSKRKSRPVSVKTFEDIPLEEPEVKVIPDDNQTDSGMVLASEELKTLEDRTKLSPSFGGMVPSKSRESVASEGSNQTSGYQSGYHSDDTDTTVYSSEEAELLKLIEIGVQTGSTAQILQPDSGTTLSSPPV
structure (smiles),measurement,setting,value
"COc1cc2c(Oc3ccc4[nH]c(C)cc4c3F)ncnc2cc1OCCCN1CCC(CO)(CO)CC1 [Compound 1, 7-(3-[4,4-bis(hydroxymethyl)-1-piperidinyl]propoxy)-4-(4-fluoro-2-methyl-1H-indol-5-yloxy)-6-methoxyquinazoline]",Kd,[1],0.38 nM
same,Kd,RET9,3.9 nM
